From publication PMC6639057 (Investigational new drugs, 2018)
Entries after “also recorded” stand apart in the source; their conditions may differ.

Experiments:
[1] = system: patients with advanced solid tumors; test: Dose-limiting toxicities and maximum tolerated dose, dose-escalation phase; assay type: in vivo
Plasma pharmacokinetics = assay type: in vivo, human; settings: for AUC(0-t): 40 mg, Mean AUC24h, 40 mg once daily, dose expansion
[2] = system: taxane-resistant triple-negative breast cancer; test: Tumor response, dose-expansion TNBC cohort; assay type: in vivo, human
[3] = system: castration-resistant and taxane- or cisplatin/etoposide-resistant prostate cancer; test: Tumor response, dose-expansion CRPC cohort; assay type: in vivo, human
p-histone H3 = settings: not measured in this study; no reference given; cited from earlier work
[4] = system: cell lines from a variety of tumor types including several that were resistant to paclitaxel; settings: preclinical; cited from earlier work
[5] = system: xenografts of diverse tumor types that were resistant to either docetaxel or paclitaxel; settings: mouse models; cited from earlier work
[6] = system: breast cancer cell lines with TP53 loss of function mutations; settings: cited from earlier work
[7] = system: TNBC cell lines and xenografts; settings: in combination with ixabepilone; cited from earlier work
[8] = Central read, RECIST 1.1, expansion 40 mg + G-CSF, TNBC (n = 14)
[9] = Local read, RECIST 1.0, expansion 40 mg + G-CSF, TNBC (n = 14)
[10] = Central read, RECIST 1.1, expansion 40 mg + G-CSF, CRPC (n = 12)
[11] = Local read, RECIST 1.0, expansion 40 mg + G-CSF, CRPC (n = 12)

## Cc1csc(-c2nnc(Nc3ccc(Oc4ncccc4-c4ccnc(N)n4)cc3)c3ccccc23)c1 [AMG 900]
[1]; in vivo
  DLTs overall: nine DLTs were reported in eight patients
[1]; with G-CSF, daily, 4 days on, 10 days off
  Maximum tolerated dose (MTD) and recommended phase 2 dose: 40 mg
[1]; with G-CSF, oral, 4 days on/10 days off
  Maximum tolerated dose (MTD): 40 mg/day
[1]; without G-CSF, daily, 4 days on, 10 days off
  Maximum tolerated dose (MTD): 25 mg
[1]; without G-CSF, oral, 4 days on/10 days off
  Maximum tolerated dose (MTD): 25 mg/day
Plasma pharmacokinetics; cycle 1 day 1 to cycle 1 day 4, all dose cohorts
  Accumulation based on AUC8h: < 2 fold
Plasma pharmacokinetics; human, plasma, oral
  Tmax: 1 to 3 h
  half-life: 6 to 9 h
Plasma pharmacokinetics; human, plasma, oral, CRPC
  AUC(0-t): 7700 ng·h/mL
Plasma pharmacokinetics; human, plasma, oral, TNBC
  AUC(0-t): 10600 ng·h/mL
Plasma pharmacokinetics; human, plasma, oral, ovarian cancer cohort
  AUC(0-t): 12900 ng·h/mL
Plasma pharmacokinetics; oral, 1 to 50 mg
  Mean exposure (AUC24h) versus dose: increased as the dose increased
[2]; 40 mg + G-CSF, RECIST 1.0 (local read)
  Tumor response, one patient with TNBC: partial response per RECIST 1.0 (local read) that was not confirmed per RECIST 1.1 (central read)
[2]; Central read, RECIST 1.1, Kaplan-Meier, expansion 40 mg + G-CSF, TNBC (n = 14)
  Progression-free survival, median (80% CI): 7.6 (4.1–23.6) weeks
[2]; [8]
  Best overall response: Complete response: 0 Patients (%)
  Best overall response: Not evaluable (postbaseline scan not readable): 3 (21) Patients (%)
  Best overall response: Partial response: 0 Patients (%)
  Best overall response: Progressive disease: 4 (29) Patients (%)
  Best overall response: Stable disease: 7 (50) Patients (%)
[2]; [9]
  Best overall response: Complete response: 0 Patients (%)
  Best overall response: Not evaluable (postbaseline scan not readable): 3 (21) Patients (%)
  Best overall response: Partial response: 1 (7) Patients (%)
  Best overall response: Progressive disease: 5 (36) Patients (%)
  Best overall response: Stable disease: 5 (36) Patients (%)
[2]; RECIST 1.1 (central read), TNBC
  Objective responses: No objective responses; also recorded: No patients with TNBC had an objective response
[2]; RECIST 1.1 (central read), TNBC (7 of 14)
  Died or had progressive disease: 50.0%
[2]; RECIST 1.1, TNBC (7 of 14)
  Stable disease as best overall tumor response: 50.0%
[3]; Central read, RECIST 1.1, Kaplan-Meier, expansion 40 mg + G-CSF, CRPC (n = 12)
  Progression-free survival, median (80% CI): 32.4 (15.7–39.6) weeks
[3]; [10]
  Best overall response: Complete response: 0 Patients (%)
  Best overall response: Not evaluable (postbaseline scan not readable): 2 (17) Patients (%)
  Best overall response: Partial response: 0 Patients (%)
  Best overall response: Progressive disease: 1 (8) Patients (%)
  Best overall response: Stable disease: 9 (75) Patients (%)
[3]; [11]
  Best overall response: Complete response: 0 Patients (%)
  Best overall response: Not evaluable (postbaseline scan not readable): 1 (8) Patients (%)
  Best overall response: Partial response: 0 Patients (%)
  Best overall response: Progressive disease: 3 (25) Patients (%)
  Best overall response: Stable disease: 8 (67) Patients (%)
[3]; RECIST 1.1, CRPC
  Objective responses: No objective responses
p-histone H3
  50% inhibitory concentration for the in vivo inhibition of p-histone H3: 273 ng/mL
[4]
  Proliferation of tumor cell lines: inhibited the proliferation
[5]
  Growth of xenografts: inhibited growth
[6]
  Sensitivity to AMG 900 compared with cell lines without such mutations: greater sensitivity
[7]
  Growth of TNBC cell lines and xenografts: inhibited growth
